# In patent publication US11214803B2, “Modulators of YAP1 expression” (Ionis Pharmaceuticals, Inc., priority 2019, dated 2022):
# Strand notation (5' to 3'): a small letter for the sugar, then the base; units joined by * are phosphorothioate-linked, units joined directly phosphodiester-linked; [ ] holds rarer units or linkages, { } end groups; capitals alone tell only the bases. k = constrained ethyl (cEt); [5mC] = 5-methylcytosine; d = 2'-deoxy (DNA)
# Tested on: Yap1 mRNA
# Assay: Antisense inhibition of human Yap1 in A-431 cells by cEt gapmers, single dose (Example 2, RTS4814)
# Format: cell-based
# Details: A-431 cells, 5,000 cells per well, free uptake, 2,000 nM modified oligonucleotide, approx. 48 hours, RTS4814, normalized to RIBOGREEN; Table 4; asterisk (*) = targets amplicon region of primer probe set
# Outline: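 A-431 cells (5,000/well) received 2,000 nM oligonucleotide by free uptake for about 48 h. Yap1 mRNA was then quantified by RT-qPCR with primer probe set RTS4814, normalized to RIBOGREEN total RNA, and reported as % of untreated control; asterisked values mark oligos inside the amplicon.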
row,Substance,YAP1 (% UTC)
1,716352 (k[5mC]*kT*kG*d[5mC]*dG*d[5mC]*d[5mC]*d[5mC]*d[5mC]*dG*dG*d[5mC]*dT*k[5mC]*k[5mC]*kA; antisense) [Compound 716352],105

# Same assay, conditions: Table 5; A-431 cells, 5,000 cells per well, free uptake, 2,000 nM modified oligonucleotide, approx. 48 hours; RTS4814; normalized to RIBOGREEN; Yap1 mRNA relative to untreated control cells
row,Substance,YAP1 (% UTC)
1,716512 (antisense kA*k[5mC]*kT*d[5mC]*d[5mC]*dT*dT*d[5mC]*d[5mC]*dA*dA*dG*dT*kA*kG*k[5mC]) [Compound 716512],99
2,716437 (k[5mC]*k[5mC]*kA*dG*dT*dA*dA*dA*dT*d[5mC]*dA*dT*dG*kT*kT*kT; antisense) [Compound 716437],41
3,716521 (antisense k[5mC]*kA*kG*d[5mC]*dA*d[5mC]*dG*dG*dT*dG*dT*dA*dA*kG*kA*k[5mC]) [Compound 716521],79

# Same assay, conditions: Table 6; A-431 cells, 5,000 cells per well, free uptake, 2,000 nM modified oligonucleotide, approx. 48 hours; RTS4814; normalized to RIBOGREEN; Yap1 mRNA relative to untreated control cells
row,Substance,YAP1 (% UTC)
1,716441 (kG*k[5mC]*k[5mC]*dT*dT*dG*dG*dT*dT*dT*d[5mC]*dA*dG*k[5mC]*kT*kA; antisense) [Compound 716441],57
2,716486 (kA*kT*k[5mC]*dA*dT*dG*dA*dT*dT*dA*dT*d[5mC]*dT*k[5mC]*kT*kA; antisense) [Compound 716486],68
3,716522 (antisense kG*kT*kG*dA*d[5mC]*dT*dG*dA*dA*dA*d[5mC]*dT*d[5mC]*kT*kA*kG) [Compound 716522],47
4,716564 (k[5mC]*kT*kT*dT*dT*dG*dG*dG*d[5mC]*dA*dA*dA*dG*kT*kT*k[5mC]; antisense) [Compound 716564],103

# Same assay, conditions: Table 18; A-431 cells, 5,000 cells per well, free uptake, 2,000 nM modified oligonucleotide, approx. 48 hours; RTS4814; normalized to RIBOGREEN; Yap1 mRNA as percent of untreated control
row,Substance,YAP1 (% UTC)
1,1075428 (antisense kT*kA*kT*dA*dT*dA*dA*dG*dG*d[5mC]*dA*dT*d[5mC]*kT*kT*kG) [Compound 1075428],53
2,1076324 (kG*k[5mC]*kT*d[5mC]*dA*dA*dA*dA*dG*dG*dT*d[5mC]*dT*k[5mC]*kT*k[5mC]; antisense) [Compound 1076324],13
3,1076260 (k[5mC]*kT*kT*dA*dA*dT*dT*dT*dA*dA*d[5mC]*dT*d[5mC]*k[5mC]*kT*kG; antisense) [Compound 1076260],3
4,1076516 (antisense k[5mC]*kA*kT*dA*dA*dA*d[5mC]*dA*dT*dG*dA*dG*dT*kG*kG*kT) [Compound 1076516],8

# Same assay, conditions: Table 19; A-431 cells, 5,000 cells per well, free uptake, 2,000 nM modified oligonucleotide, approx. 48 hours; RTS4814; normalized to RIBOGREEN; Yap1 mRNA as percent of untreated control
row,Substance,YAP1 (% UTC)
1,1076517 (antisense k[5mC]*kA*kT*dA*dA*dT*dA*dA*dG*dA*d[5mC]*dT*dA*kA*kA*k[5mC]) [Compound 1076517],102

# Same assay, conditions: Table 20; Yap1 mRNA, percent of untreated control; 3-10-3 cEt gapmers targeting SEQ ID NO.: 1 and 2
row,Substance,YAP1 (% UTC)
1,1075014 (antisense kG*kG*kA*dG*dA*dA*dA*dT*dA*dA*dA*dA*dG*kT*k[5mC]*kG) [Compound 1075014],46
2,1074246 (antisense kA*kA*kG*dA*dA*dG*dT*dA*dT*d[5mC]*dT*d[5mC]*dT*kG*kA*k[5mC]) [Compound 1074246],11

# Same assay, conditions: Table 21; Yap1 mRNA, percent of untreated control; 3-10-3 cEt gapmers targeting SEQ ID NO.: 1 and 2
row,Substance,YAP1 (% UTC)
1,1075815 (kG*kT*kA*dT*dA*dA*dA*dG*d[5mC]*dA*dG*dG*dG*k[5mC]*kA*kT; antisense) [Compound 1075815],36
2,1074855 (antisense kG*kT*kG*d[5mC]*dA*dT*dT*dA*dA*dA*dG*dA*dA*kT*kT*k[5mC]) [Compound 1074855],29

# Same assay, conditions: Table 22; Yap1 mRNA as percent of untreated control; 3-10-3 cEt gapmers; single dose
row,Substance,YAP1 (% UTC)
1,1076328 (kA*k[5mC]*kT*dG*dA*dA*d[5mC]*d[5mC]*dG*d[5mC]*dT*dG*d[5mC]*k[5mC]*kT*k[5mC]; antisense) [Compound 1076328],33
2,1076136 (k[5mC]*kA*kA*d[5mC]*dA*dA*d[5mC]*d[5mC]*dT*d[5mC]*dA*dT*dG*kT*kA*kA; antisense) [Compound 1076136],60
3,1076264 (kA*k[5mC]*k[5mC]*d[5mC]*dA*dA*dT*dA*dA*d[5mC]*d[5mC]*dA*dA*kG*kT*kG; antisense) [Compound 1076264],40
4,1075944 (kT*kA*kT*dT*dA*dG*dG*dA*dA*d[5mC]*dA*dG*dA*kT*k[5mC]*kA; antisense) [Compound 1075944],25
5,1076008 (kA*kG*k[5mC]*dG*dA*dA*dA*dA*dT*dA*dA*d[5mC]*dA*kT*kT*kA; antisense) [Compound 1076008],33
6,1075880 (kA*kT*kT*dA*dA*d[5mC]*dT*dA*d[5mC]*dA*d[5mC]*d[5mC]*dA*k[5mC]*kG*kA; antisense) [Compound 1075880],30

# Same assay, conditions: Table 23; Yap1 mRNA as percent of untreated control; 3-10-3 cEt gapmers; single dose
row,Substance,YAP1 (% UTC)
1,1074665 (antisense kT*kT*kG*d[5mC]*dA*dT*dT*d[5mC]*dT*dA*dG*dG*dT*kA*kG*kA) [Compound 1074665],17
2,1074377 (antisense kA*kA*kA*d[5mC]*dG*dG*dT*dT*d[5mC]*dT*dG*d[5mC]*dT*kG*kT*kG) [Compound 1074377],52
3,1075657 (kT*kA*kA*dA*dA*dA*dA*d[5mC]*dG*dG*dT*dT*dT*kT*kT*k[5mC]; antisense) [Compound 1075657],84
4,1076521 (antisense kA*k[5mC]*kT*dA*dA*dA*dG*dG*dA*dG*dT*d[5mC]*dA*kT*kG*kA) [Compound 1076521],67

# Same assay, conditions: Table 24; Yap1 mRNA as percent of untreated control; 3-10-3 cEt gapmers targeting SEQ ID NO.: 1, and 2
row,Substance,YAP1 (% UTC)
1,1075018 (antisense k[5mC]*k[5mC]*kT*dT*dA*dA*dA*dG*dT*dG*dA*dT*dA*k[5mC]*kA*k[5mC]) [Compound 1075018],29

# Same assay, conditions: Table 25; Yap1 mRNA as percent of untreated control; 3-10-3 cEt gapmers targeting SEQ ID NO.: 1, and 2
row,Substance,YAP1 (% UTC)
1,1074507 (kA*kT*kA*dA*dT*d[5mC]*dG*dA*dG*dA*dT*dT*dT*kA*kA*kA; antisense) [Compound 1074507],74
2,1074379 (antisense kT*kG*kG*dG*dA*dA*dA*d[5mC]*dG*dG*dT*dT*d[5mC]*kT*kG*k[5mC]) [Compound 1074379],20
3,1074251 (antisense kT*k[5mC]*kT*dG*dA*dT*d[5mC]*dG*dA*dT*dG*dT*dG*kA*kT*kT) [Compound 1074251],7

# Same assay, conditions: Table 32; Yap1 mRNA, percent of untreated control; 3-10-3 cEt gapmers targeting SEQ ID NO.: 1, and 2
row,Substance,YAP1 (% UTC)
1,1076306 (k[5mC]*kT*kT*dT*dA*d[5mC]*dT*dA*d[5mC]*dT*dA*dA*dT*kA*kA*kG; antisense) [compound 1076306],99
2,1074738 (k[5mC]*kT*kT*d[5mC]*dA*dG*dG*dT*d[5mC]*dA*dG*dT*dA*k[5mC]*kA*kG; antisense) [compound 1074738],12
3,1075506 (k[5mC]*kA*kT*dA*dA*dA*dG*dG*dT*dG*dA*d[5mC]*dA*kG*k[5mC]*k[5mC]; antisense) [compound 1075506],66
4,1076242 (kA*kT*kG*d[5mC]*dA*dA*dT*dA*dA*dG*dG*dA*dA*k[5mC]*kA*kG; antisense) [compound 1076242],33
5,1076050 (k[5mC]*kT*kT*dT*dA*dG*dA*dT*dT*dA*dA*dA*dG*kG*k[5mC]*kT; antisense) [compound 1076050],45

# Same assay, conditions: Table 33; Yap1 mRNA, percent of untreated control; 3-10-3 cEt gapmers targeting SEQ ID NO.: 1, and 2
row,Substance,YAP1 (% UTC)
1,1075187 (kG*k[5mC]*k[5mC]*d[5mC]*dA*dA*dG*dG*dA*dG*dG*dA*dA*kA*kT*k[5mC]; antisense) [compound 1075187],77

# Same assay, conditions: Yap1 mRNA as percent of untreated control; A-431 cells; 3-10-3 cEt gapmers targeting SEQ ID NO.: 1, and 2; Table 30
row,Substance,YAP1 (% UTC)
1,1076368 (antisense k[5mC]*kA*kT*dT*dT*dT*dA*dT*dG*dT*dA*dA*dG*kG*k[5mC]*k[5mC]) [compound 1076368],15
2,1074416 (k[5mC]*kT*kT*dT*dA*dG*dA*dG*d[5mC]*d[5mC]*dA*dA*d[5mC]*kT*kG*kT; antisense) [compound 1074416],9
3,1074224 (antisense k[5mC]*kA*kG*dA*dG*dA*d[5mC]*dT*dA*d[5mC]*dT*d[5mC]*d[5mC]*kA*kG*kT) [compound 1074224],16

# Same assay, conditions: Yap1 mRNA as percent of untreated control; A-431 cells; 3-10-3 cEt gapmers targeting SEQ ID NO.: 1, and 2; Table 31
row,Substance,YAP1 (% UTC)
1,1075697 (kA*kA*kT*dA*dA*dT*d[5mC]*d[5mC]*dA*dT*dG*d[5mC]*dT*kT*kG*k[5mC]; antisense) [compound 1075697],16
2,1076529 (k[5mC]*kT*kA*dT*dA*dA*dT*dG*dA*dG*dG*dA*dT*kT*kA*k[5mC]; antisense) [compound 1076529],108
3,1076305 (kT*kA*k[5mC]*dT*dA*dA*dT*dA*dA*dG*d[5mC]*d[5mC]*dT*k[5mC]*kA*k[5mC]; antisense) [compound 1076305],37
4,1075153 (kA*kT*kT*dA*dT*dA*dA*dT*dG*dG*dG*dA*dG*kG*kA*kT; antisense) [compound 1075153],38
5,1074481 (kA*kA*kT*dA*dT*dG*dG*dT*d[5mC]*dA*dT*dT*dT*kG*k[5mC]*k[5mC]; antisense) [compound 1074481],14
